Results reported in PubChem BioAssay (NCI).
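How tested: cells in 96-well plates exposed to compound for 48 hours at five concentrations. The concentration for 50% growth inhibition is given as GI50. TGI: concentration producing complete growth inhibition.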

Legend:
Assay in all cases: inhibition of tumour cell growth, NCI panel, 48 h
[1] = system: SK-MEL-28 melanoma
[2] = system: MCF7 breast
[3] = system: SN12C renal
[4] = system: NCI-H226 lung
[5] = system: HCC-2998 colon
[6] = system: COLO 205 colon
[7] = system: SNB-75 CNS
[8] = system: CCRF-CEM leukemia
[9] = system: SK-OV-3 ovarian
[10] = system: HCT-15 colon

| SMILES | TGI [1] | TGI [2] | TGI [3] | TGI [4] | TGI [5] | TGI [6] | TGI [7] | TGI [8] | TGI [9] | TGI [10] | GI50 [1] | GI50 [2] | GI50 [10] | GI50 [3] | GI50 [4] | GI50 [8] | GI50 [5] | GI50 [9] | GI50 [6] | GI50 [7] |
| --- | --- | --- | --- | --- | --- | --- | --- | --- | --- | --- | --- | --- | --- | --- | --- | --- | --- | --- | --- | --- |
| CCOC(=O)Cn1c(=O)c(C)cn(COCCO)c1=O | > 100 µM | > 100 µM | > 100 µM | > 100 µM | > 100 µM | > 100 µM | > 100 µM |  |  |  |  |  |  |  |  |  |  |  |  |  |
| COC(=O)C1c2cc3c(c(O)c2C(O)CC1(C)O)C(=O)c1c(O)cc2c(c1C3=O)OC1OC2(C)C(O)C(N(C)C)C1O (stereo unspecified) |  | 2.63 µM |  | > 31.9 µM |  | > 32.4 µM | > 20.9 µM | > 100 µM | > 27.8 µM |  |  |  |  |  |  |  |  |  |  |  |
| CCOC(C)OC1CC(n2cc(C)c(=O)[nH]c2=O)OC1CO (stereo unspecified) | > 100 µM |  | > 100 µM | > 100 µM | > 100 µM | > 100 µM |  | > 100 µM | > 100 µM | > 100 µM |  |  |  |  |  |  |  |  |  |  |
| CN/N=C(\C(=O)Nc1ccc(C)c(C)c1)C(C(=O)OC)c1nc2ccc([N+](=O)[O-])cc2[nH]c1=O (stereo unspecified) | > 100 µM |  | > 100 µM | > 100 µM | > 100 µM | > 100 µM | > 100 µM | > 100 µM | > 100 µM | > 100 µM |  |  |  |  |  |  |  |  |  |  |
| COc1ccc(C2=NC(c3ccc(Cl)cc3)C(c3ccc(Cl)cc3)N2C(=O)N2CCNC(=O)C2)c(OC(C)C)c1 (stereo unspecified) | 7.62 µM | 4.16 µM | 3.49 µM | 4.19 µM | 5.57 µM | > 10 µM | 4.8 µM | > 10 µM | 4.31 µM | 3.86 µM | 3.24 µM | 2.06 µM | 1.91 µM | 1.94 µM | 2.08 µM | 3.85 µM | 2.3 µM | 2.27 µM | 3.31 µM | 2.37 µM |
| CCN(CC)CCO[Si](OCCN(CC)CC)(OCCN(CC)CC)OCCN(CC)CC | > 100 µM |  | > 100 µM | > 100 µM | > 100 µM | > 100 µM | > 100 µM |  | > 100 µM | > 100 µM |  |  |  |  |  |  |  |  |  |  |
| O=C(CCC1CCCCN1)Nc1ccc2c(c1)C(=O)c1ccc(NC(=O)CCN3CCCCC3)cc1C2=O (stereo unspecified) | 3.77 µM |  | 4.34 µM | 18.6 µM |  | 2.65 µM | 16.4 µM | 4.86 µM | 70.1 µM |  |  |  |  |  |  | 1.12 µM |  |  |  |  |
| C(=C/c1nc2ccccc2o1)/c1ccc2c(c1)OCO2 | > 100 µM | > 79.8 µM | > 100 µM | 55.2 µM | > 70.8 µM | > 100 µM | > 63.8 µM | > 100 µM | 53.1 µM | > 100 µM |  |  |  |  |  |  |  |  |  |  |
| C=C(C)[C@@H]1CC[C@]2(CO)CC[C@]3(C)[C@H](CC[C@@H]4[C@@]5(C)CC[C@H](NCO)C(C)(C)[C@@H]5CC[C@]43C)[C@@H]12 | 1.61 µM | 1.61 µM | 1.5 µM | 20.5 µM |  | 1.82 µM | 1.4 µM | 3.21 µM | 1.61 µM |  | 0.894 µM | 0.794 µM |  | 0.79 µM | 8.3 µM | 1.02 µM |  | 0.87 µM | 0.898 µM | 0.71 µM |
| CC1OC(=O)C(C(C)C)NC(=O)C(C(C)C)OC(=O)C(C(C)C)NC(=O)C(C)OC(=O)C(C(C)C)NC(=O)C(C(C)C)OC(=O)C(C(C)C)NC(=O)C(C)OC(=O)C(C(C)C)NC(=O)C(C(C)C)OC(=O)C(C(C)C)NC1=O (stereo unspecified) | 5.63 µM | 0.0686 µM | 0.233 µM | 0.779 µM | 1.29 µM |  | 0.00378 µM | 4.2 µM | 0.225 µM | 4.53 µM | < 0.0001 µM |  | 0.000358 µM | 0.00019 µM |  |  | < 0.0001 µM |  | < 0.0001 µM |  |
